We go through 21 compounds from patent publication US12686690B2, “Macrocyclic urea orexin receptor agonists” (Merck Sharp & Dohme LLC, priority 2020, dated 2026).

As usually defined, the EC50 is the concentration needed to bring the measured effect to its halfway point.

The assay addresses T1, hOX2R (Homo sapiens, UniProt O43614).
T1 construct: expressed in transfected cells; host or cells: CHO cells (G418 selection)
T1 sequence (O43614 1-444): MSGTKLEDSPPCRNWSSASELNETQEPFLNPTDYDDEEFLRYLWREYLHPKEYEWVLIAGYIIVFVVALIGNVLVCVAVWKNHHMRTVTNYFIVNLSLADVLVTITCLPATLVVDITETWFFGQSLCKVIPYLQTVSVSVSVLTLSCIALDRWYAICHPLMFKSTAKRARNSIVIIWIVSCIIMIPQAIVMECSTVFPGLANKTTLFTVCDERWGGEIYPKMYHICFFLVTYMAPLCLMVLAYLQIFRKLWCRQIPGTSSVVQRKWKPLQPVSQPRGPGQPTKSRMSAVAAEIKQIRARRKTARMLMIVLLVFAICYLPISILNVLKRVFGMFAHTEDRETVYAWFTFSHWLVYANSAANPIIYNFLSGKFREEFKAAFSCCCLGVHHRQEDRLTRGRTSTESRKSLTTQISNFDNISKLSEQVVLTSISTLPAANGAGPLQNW
Briefly: hOX2R IPone assay (orexin receptor agonism). In kind it is cell-based. To be noted: IPone readout; for hOX2R_Ipone max %act: maximal activation; for EC50: orexin receptor agonist, read-out: hOX2R_IPone EC50.

For `CCN1C(=O)N[C@@H](CCC(F)(F)F)CCCCCOc2cc(cn3ccnc23)-c2cc(cnc2OC)[C@H]1C` [Example 91, (12R,16R)-13-ethyl-8-methoxy-12-methyl-16-(3,3,3-trifluoropropyl)-12,13,16,17,18,19,20, 21-octahydro-6,23:11,7-di(metheno) imidazo[2,1-c][1,4,9, 13,15]oxatetraazacyclo-henicosin-14(15H)-one], the hOX2R_Ipone max %act is given as 100.5% and the EC50 was determined as 0.6 nM.

For `CCN1C(=O)N[C@@H](c2nccnc2C)CCCCCOc2nc(cn3ccnc23)-c2cc(ncc2OC)[C@H]1C` [Example 152, (3R,7R,E)-4-ethyl-25-methoxy-3-methyl-7-(3-methylpyrazin-2-yl)-13-oxa-4,6-diaza-1(6,8)-imidazo[1,2-a]pyrazina-2(4,2)-pyridinacyclotridecaphan-5-one], the hOX2R_Ipone max %act is given as 106.5% and the EC50 was found to be 4.17 nM.

In the case of `CCC(CC)CC1CCCCCOc2nc(cn3ccnc23)-c2cc(ncc2OC)[C@@H](C)N(CC)C(=O)N1` (single isomer, unassigned) [Example 64A], the hOX2R_Ipone max %act came out at 102.7% and the EC50 is 3.5 nM.

For the compound `CCCC1CCCCCOc2nc(cn3ccnc23)-c2cc(ncc2OC)[C@@H](C)N(CC)C(=O)N1` (single isomer, unassigned) [Example 54B], the hOX2R_Ipone max %act came to 100.7% and the EC50 was determined as 1 nM.

In the case of `CCN1C(=O)N[C@@H](CC(F)(F)F)CCCCOc2nc(cn3ncnc23)-c2cc(ncc2OC)C1C(F)(F)F` (stereo partly drawn) [Example 38, (16R)-13-ethyl-8-methoxy-16-(2,2,2-trifluoroethyl)-12-(trifluoromethyl)-12,13,15,16,17,18,19,20-octahydro-14H-6,22-(azeno)-11,7-(metheno) [1,2,4]triazolo[5,1-c][1,4,10,13,15]oxatetra-azacycloicosin-14-one], the hOX2R_Ipone max %act amounted to 94.5% and the EC50 turned out to be 2390 nM.

Turning to `CCN1C(=O)NC(C2CCOCC2)CCCCCOc2nc(cn3ccnc23)-c2cc(ncc2OC)[C@H]1C` (single isomer, unassigned) [Example 68A], the hOX2R_Ipone max %act was determined as 100.1% and the EC50 stood at 38.4 nM.

In the case of `CCOCC1CCCCCOc2nc(cn3ccnc23)-c2cc(ncc2OC)[C@@H](C)N(CC)C(=O)N1` (single isomer, unassigned) [Example 62A], the hOX2R_Ipone max %act was found to be 99.9% and the 50% effective concentration (EC50) came to 39.2 nM.

Take `CCN1C(=O)N[C@@H](CCC(F)(F)F)CCCCCOc2nc(cn3ccnc23)-c2cc(C)nc(c2)[C@@H]1C` [Example 107A, (12S,16R)-13-ethyl-9,12-dimethyl-16-(3,3,3-trifluoropropyl)-12,13,16,17,18,19,20, 21-octahydro-6,23-(azeno)-11,7-(metheno)imidazo[2,1-c][1,4,10,13,15] oxatetraazacycloheni-cosin-14(15H)-one]: the hOX2R_Ipone max %act was 92.7% and the EC50 came out at 166 nM.

Consider “(3R,7S,E)-4-ethyl-25-methoxy-3-methyl-7-(3,3,3-trifluoropropyl)-13-oxa-10-thia-4,6-diaza-1(6,8)-[1,2,4]triazolo[1,5-a]pyrazina-2(4,2)-pyridinacyclotridecaphan-5-one [Example 134]”, for which the hOX2R_Ipone max %act is 100.6% and the EC50 worked out at 6.4 nM.

For `CCN1C(=O)NC(CCC(F)F)CCCCCOc2cc(nn3ccnc23)-c2cc(ncc2F)[C@H]1C` (stereo partly drawn) [Example 204, (3R,E)-7-(3,3-difluoropropyl)-4-ethyl-25-fluoro-3-methyl-13-oxa-4,6-diaza-1(6,8)-imidazo[1,2-b]pyridazina-2(4,2)-pyridina-cyclotridecaphan-5-one], the hOX2R_Ipone max %act was 100.5% and the EC50 amounted to 2.11 nM.

`CCN1C(=O)NC(C)/C=C/CC(F)(F)COc2cn3ccnc3c(n2)-c2cc(ncc2OC)[C@H]1C` (stereo partly drawn) [Example 220, (1^7E,3R,8E)-4-ethyl-11,11-difluoro-25-methoxy-3,7-dimethyl-13-oxa-4,6-diaza-1(6,8)-imidazo[1,2-a]pyrazina-2(4,2)-pyridinacyclotridecaphan-8-en-5-one]: the hOX2R_Ipone max %act is 108.5% and the EC50 was determined as 12.1 nM.

For `CCN1Cc2cc(ccn2)-c2cn3ccnc3c(n2)OCCCCC[C@H](CCC(F)(F)F)NC1=O` [Example 120, (16R)-13-ethyl-16-(3,3,3-trifluoropropyl)-12,13,16,17,18,19,20,21-octahydro-6,23-(azeno)-11,7-(metheno)imidazo[2,1-c][1,4,10,13,15]oxatetraazacyclohenicosin-14(15H)-one], the hOX2R_Ipone max %act is listed as 98.4% and the EC50 amounted to 17.7 nM.

On to `CCN1C(=O)NCCNCCCOc2cn3ccnc3c(n2)-c2cccc(c2)[C@H]1C` [Example 10, (R,E)-4-ethyl-3-methyl-13-oxa-4,6,9-triaza-1(6,8)-imidazo[1,2-a]pyrazina-2(1,3)-benzenacyclotridecaphan-5-one], for which the hOX2R_Ipone max %act was found to be 97.61% and the EC50 was 950 nM.

In the case of `CCN1C(=O)NC(CCOC(F)F)CCCCCOc2nc(cn3ccnc23)-c2cc(ncc2OC)[C@H]1C` (stereo partly drawn) [Example 182, (3R,E)-7-(2-(difluoromethoxy)ethyl)-4-ethyl-25-methoxy-3-methyl-13-oxa-4,6-diaza-1(6,8)-imidazo[1,2-a]pyrazina-2(4,2)-pyridinacyclotridecaphan-5-one], the hOX2R_Ipone max %act is 98.9% and the EC50 worked out at 0.85 nM.

Consider `CCN1C(=O)N[C@@H](CCC(C)(F)F)CCOCCOc2nc(cn3ncnc23)-c2cc(cnc2OC)[C@H]1C` [Example 148, (3R,7S,E)-7-(3,3-difluorobutyl)-4-ethyl-22-methoxy-3-methyl-10,13-dioxa-4,6-diaza-1(6,8)-[1,2,4]triazolo[1,5-a]pyrazina-2(3,5)-pyridinacyclotridecaphan-5-one], for which the hOX2R_Ipone max %act turned out to be 101.7% and the EC50 was found to be 1.7 nM.

Take `CCN1C(=O)NC(CC2CCCC2)CCCCCOc2nc(cn3ccnc23)-c2cc(ncc2OC)[C@H]1C` (single isomer, unassigned) [Example 65B]: the hOX2R_Ipone max %act is 101.9% and the EC50 came out at 1 nM.

For `CCN1C(=O)N[C@@H](CCC(F)(F)F)CCC(O)CCOc2nc(cn3ccnc23)-c2cc(cnc2C)[C@H]1C` (single isomer, unassigned) [Example 137], the hOX2R_Ipone max %act is reported as 100.7% and the EC50 stood at 4.66 nM.

As to `CCN1C(=O)N[C@@H](CCC(F)(F)F)CCCCCOc2nc(cn3ccnc23)-c2cc(c(C)cn2)C1C` (single isomer, unassigned) [Example 92B], the hOX2R_Ipone max %act was 99.1% and the EC50 came out at 24.2 nM.

For `CCN1C(=O)N[C@@H](CCC(F)(F)F)CCCCOc2nc(cn3ccnc23)-c2ccnc(c2)[C@H]1C` [Example 29B, (12R,16R)-13-ethyl-12-methyl-16-(3,3,3-trifluoropropyl)-12,13,15,16,17, 18,19,20-octahydro-14H-6,22-(azeno)-11,7-(metheno) imidazo[2,1-c][1,4,10,13,15] oxatetraazacyclo-icosin-14-one], the hOX2R_Ipone max %act turned out to be 99.7% and the EC50 amounted to 4.5 nM.

In the case of `CCN1C(=O)NC(C(O)CC(F)(F)F)CCCCCOc2nc(cn3ncnc23)-c2cc(ncc2OC)C1C` (single isomer, unassigned) [Example 133], the hOX2R_Ipone max %act is given as 102.1% and the EC50 came to 4.75 nM.

For the compound `CCN1C(=O)NC(c2ncnn2C)CCCCCOc2nc(cn3ccnc23)-c2cc(ncc2OC)[C@H]1C` (stereo partly drawn) [Example 219, (3R,E)-4-ethyl-2^5-methoxy-3-methyl-7-(1-methyl-1H-1,2,4-triazol-5-yl)-13-oxa-4,6-diaza-1(6,8)-imidazo[1,2-a]pyrazina-2(4,2)-pyridinacyclotridecaphan-5-one], the hOX2R_Ipone max %act is 102.6% and the EC50 was 37.5 nM.
